Results taken from US20250066864A1, “METHODS FOR IDENTIFYING ADAR1 INHIBITORS, AND COMPOSITIONS AND METHODS OF USE IN TREATING CANCER” (The Wistar Institute of Anatomy and Biology, priority 2021, published 2025).
pIC50: −log10 of the molar value. “Also recorded” adds a separate entry of the source.

How the values were obtained:
ADAR1p150 = target: T1, ADAR1p150 (Homo sapiens, UniProt P55265); assay: in vitro editing assay, ADAR1p150; format: biochemical; conditions: dsRNAs (matched, mismatched) and DNA:RNA hybrids; not shown
T1 construct: a full-length interferon-inducible p150 and a shorter N-terminus truncated p110
T1 sequence (P55265 1-1226): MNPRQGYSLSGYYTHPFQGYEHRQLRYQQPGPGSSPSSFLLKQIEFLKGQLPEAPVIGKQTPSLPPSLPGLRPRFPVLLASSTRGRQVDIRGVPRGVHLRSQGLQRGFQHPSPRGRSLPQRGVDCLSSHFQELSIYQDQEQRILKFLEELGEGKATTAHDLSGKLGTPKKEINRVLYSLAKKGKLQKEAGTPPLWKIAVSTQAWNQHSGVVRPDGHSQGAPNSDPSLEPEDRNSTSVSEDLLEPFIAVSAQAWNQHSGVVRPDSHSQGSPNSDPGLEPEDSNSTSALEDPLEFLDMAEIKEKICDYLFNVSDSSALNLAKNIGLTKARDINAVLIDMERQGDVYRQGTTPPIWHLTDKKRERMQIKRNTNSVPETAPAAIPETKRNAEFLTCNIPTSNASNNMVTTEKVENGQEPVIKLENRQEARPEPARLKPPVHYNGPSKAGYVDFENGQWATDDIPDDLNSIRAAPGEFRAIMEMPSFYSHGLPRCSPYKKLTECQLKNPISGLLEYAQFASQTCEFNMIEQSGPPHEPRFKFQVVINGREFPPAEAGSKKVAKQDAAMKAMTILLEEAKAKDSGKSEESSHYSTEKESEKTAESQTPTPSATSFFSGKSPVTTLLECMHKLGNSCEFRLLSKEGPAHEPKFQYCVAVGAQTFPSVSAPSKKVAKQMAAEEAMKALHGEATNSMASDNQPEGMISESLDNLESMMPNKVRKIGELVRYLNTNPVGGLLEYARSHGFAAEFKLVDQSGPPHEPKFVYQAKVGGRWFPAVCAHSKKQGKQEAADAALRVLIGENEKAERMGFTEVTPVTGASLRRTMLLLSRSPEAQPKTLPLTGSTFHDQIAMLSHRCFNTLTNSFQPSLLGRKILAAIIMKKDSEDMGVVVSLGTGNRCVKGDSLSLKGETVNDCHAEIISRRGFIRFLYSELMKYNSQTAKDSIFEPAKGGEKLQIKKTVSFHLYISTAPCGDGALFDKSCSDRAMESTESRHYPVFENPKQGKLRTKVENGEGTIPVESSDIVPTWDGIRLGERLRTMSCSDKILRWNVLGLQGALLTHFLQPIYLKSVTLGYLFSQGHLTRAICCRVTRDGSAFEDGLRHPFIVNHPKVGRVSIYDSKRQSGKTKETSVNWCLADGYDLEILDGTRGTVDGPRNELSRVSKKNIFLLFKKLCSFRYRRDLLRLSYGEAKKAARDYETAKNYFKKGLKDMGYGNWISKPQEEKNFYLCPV
Description: We conducted in vitro editing assay at varying concentrations of Compound #13 with dsRNAs (matched, mismatched) and DNA:RNA hybrids, resulting in determination of IC50 values for ADAR1p110 and ADAR1p150 (not shown) in 7-40 μM ranges: examples of such experiments done for dsRNA are shown (FIG. 8). […] In vivo ADAR1 inhibitory effects in HeLa cells were examined by cDNA sequencing of RT-PCR products of known ADAR1 target RNAs. One example of analysis of such ADAR1 target sites located within the 3′UTR Alu dsRNA of TMPO mRNAs is shown (FIGS. 28A and 28B). This particular ADAR1 target site is highly edited in HeLa cells, more than 80%. Compound #13 inhibited this ADAR1 target site editing down to 0% (FIGS. 28A and 28B).

HeLa cells [1] = assay: Western blotting analysis of treated HeLa cells (DNA damage, M phase arrest, apoptosis); format: cell-based, human; conditions: 10 μM
Description: (§1) FIGS. 29A-29D Characterization of Compound #13 effects in cancer cells. […] Viability was examined using the Apo Tox-Glo assay system (Promega). Control, 0.3% DMSO. (FIG. 29B) Western blotting analysis of HeLa cells treated with Compound #13 (10 μM). […] (FIG. 29D) Activation of the IFN signaling pathway. HSC-4 squamous carcinoma cells were treated with Compound #13 at 10 μM (12 hrs). RNA samples were analyzed by qRT-PCR to monitor expression levels of ISGs.
Cell lysates were prepared in Laemmli buffer containing benzonase nuclease (Sigma), complete EDTA-free proteinase inhibitor cocktail (Roche), and PhosStop phosphatase inhibitor cocktail (Roche) and size-fractionated by 4-20% sodium dodecyl sulfate-polyacrylamide gel electrophoresis. Proteins were blotted to Immobilon-P […] membrane (Millipore). Membranes were blocked with 10% Blocker BSA (bovine serum albumin) buffer (Thermo Fisher Scientific) and incubated with the primary antibodies overnight at 4° C. After incubation with each appropriate secondary antibody, bands were detected with ECL (GE Healthcare) using X-ray films. Antibodies were diluted in 10% Blocker BSA buffer (Thermo Fisher Scientific).

HeLa cells [2] = assay: dot blot analysis for RNA:DNA hybrids in HeLa cells; format: cell-based, human; conditions: 10 μM
Description: as §1
Dot blot analysis of genomic DNA Cells were treated with siRNA for 72 h in a 10 cm dish, detached from the dish surface with TrypLE Express Enzyme, and harvested by centrifugation. After PBS wash, genomic DNA was purified using QIAGEN Blood & Cell Culture DNA Midi Kit. Briefly, the cell pellet was resuspended in buffer C1. After repeated buffer C1 wash and removal of the cell debris, the nuclear pellet was resuspended in buffer G2 (without rNase A) and treated with 2 mg of proteinase K at 50° C. for 60 min. The nuclear fraction was applied to a buffer QBT-treated QIAGEN Genomic-tip and washed twice with buffer QC. […]
Genomic DNA was diluted in 100 μl of 6× saline sodium citrate (SSC) and spotted onto a Hybond N^+ (GE Healthcare) using a Bio-Dot Apparatus (#1706545, Bio-Rad). […] After washing four times with PBST, dot signals were detected with ECL (GE Healthcare) using X-ray films. […]

pIC50 (ADAR1p150): 4.40 to 5.15
Structure (SMILES): N#Cc1ccc(NC(=O)c2sc3ccccc3c2Cl)cc1 [Compound #13, 3-chloro-N-(4-cyanophenyl)-1-benzothiophene-2-carboxamide]
DNA damage, M phase arrest and apoptosis markers by Western blotting (HeLa cells [1]): induced DNA damage, M phase arrest, and apoptosis; also recorded: upregulated γ-H2AX, Histone 3 phosphorylated at Serine 10, and cleaved PARP bands | formation of R-loops (RNA:DNA hybrids) (HeLa cells [2]): increased formation of R-loops; also recorded: RNA:DNA hybrids induced
